How the values were obtained:
[1] = Dog pharmacokinetic study, HM04 free base vs HM04 fumarate salt (Example 9); type: in vivo, male Beagle dogs
Experimental: The pharmacokinetics of HM04 in plasma of male Beagle dogs dosed with a single oral administration of 2 mg/kg HM04 formulated in a solution of 10% DMAC, 6% Solutol, and 84% PBS using either the HM04 free base or HM04 fumarate salt were compared. A comparison of the plasma concentration of HM04 (ng/mL) over time in dogs dosed orally with HM04 free base and HM04 fumarate salt is provided in FIG. 18. Bioavailability was calculated from a dose normalized ratio of the oral mean AUC to the intravenous mean AUC (AUCpo/AUCiv×Doseiv/Dosepo).

[2] = Rat pharmacokinetic study, single oral HM04 fumarate salt 3, 10, 30 mg/kg (Example 10); type: in vivo, male Sprague Dawley rats; settings: for concentration at 0.5 h: 0.50 hours
Experimental: (§1) The pharmacokinetics of HM04 in plasma after single oral administration of HM04 fumarate salt to 6-week old male Sprague Dawley rats and male Beagle dogs (1-5 years of age) was investigated. Test formulations of 0.6 mg/mL, 2 mg/mL, and 6 mg/mL HM04 fumarate salt (based on weight of the free base) were prepared in 5% glucose solution. Doses of 3, 10, and 30 mg/kg HM04 fumarate salt (based on weight of the free base) were administered by gastric gavage as a 5 mL/kg dose volume of each of the three test formulations. Four animals were in each dose group. The formulation was administered to the dogs in fasting conditions with food provided three hours post-dosing.
A comparison of the plasma concentration of HM04 (ng/mL) in rats over time is provided in FIG. 19 and a summary of the pharmacokinetic analysis is provided in Table 5, below. […] The standard deviation associated with the mean oral bioavailability was calculated according to the formula: SDq=[^2√{square root over ((my^2·SDx^2+mx^2−SDy^2))}]/my^2 where q=mean bioavailability; mx=oral dose-normalized mean AUC, and my=IV dose-normalized mean AUC.
(§2) Plasma HM04 concentrations were measured by LC-MS/MS following protein precipitation in the 96-well plate format. At the time of analysis samples were thawed out at ambient temperature. Aliquots of 25 μL of rat or dog K3EDTA plasma were spiked with 300 μL of internal standard (25 ng/mL of HM04-d8 in acetonitrile). After gentle vortex mixing for 5 minutes and centrifugation at 2010 g for 15 minutes at 4° C., an aliquot of 100 μL of the organic phase was transferred into a fresh 96-well polypropylene plate, using a P3-Evolution robotic system (Perkin Elmer). Following dilution with 100 μL of […] ammonium formate pH 3.5, an aliquot of 10 μL was injected into the LC-MS/MS system.

[3] = Dog pharmacokinetic study, single oral HM04 fumarate salt 3, 10, 30 mg/kg (Example 10); type: in vivo, male Beagle dogs
Experimental: as §1
Oral absolute bioavailability at 3 mg/kg was calculated from the ratio of individual oral AUC∞ to the individual AUC∞ values determined following intravenous administration of 3 mg/kg HM04 fumarate salt (based on weight of the free base) to the same four male Beagle dogs.
Oral absolute bioavailability at 10 mg/kg was calculated from the ratio of individual oral AUC∞ to the individual AUC∞ values determined following intravenous administration of 10 mg/kg HM04 fumarate salt (based on weight of the free base) to the same four male Beagle dogs.
as §2

[4] = male, Beagle, plasma, 2 mg/kg oral, mean ± S.D., n=3
[5] = male, Sprague Dawley, plasma, 3 mg/kg oral, n=4
[6] = male, Sprague Dawley, plasma, 10 mg/kg oral, n=4
[7] = male, Sprague Dawley, plasma, 10 mg/kg oral, N = 3
[8] = male, Sprague Dawley, plasma, 30 mg/kg oral, n=4

HM04 plasma concentration ([1]; 2 mg/kg oral, 0.25 hours, mean ± S.D., n=3): 86.6 ± 32.2 ng/mL | HM04 plasma concentration ([1]; 2 mg/kg oral, 0.50 hours, mean ± S.D., n=3): 182.4 ± 24.1 ng/mL | HM04 plasma concentration ([1]; 2 mg/kg oral, 2 hours, mean ± S.D., n=3): 219.0 ± 63.6 ng/mL | bioavailability ([1]; male, Beagle, plasma, 2 mg/kg oral vs 1 mg/kg intravenous, dose normalized AUC ratio): 82.3 ± 36.8% | AUC(0-t) [1, 4]: 1850 ± 828 ng·h/mL | Cmax [1, 4]: 230 ± 57.1 ng/mL | Tmax [1, 4]: 1.33 ± 0.58 h | HM04 plasma concentration ([2]; 3 mg/kg oral, 24 hours, n=4, LLOQ 5.0 ng/mL): BLQ | bioavailability ([2]; male, Sprague Dawley, plasma, 3 mg/kg oral vs 3 mg/kg intravenous mean AUC): 43.3 ± 10.5% | concentration at 0.25 h [2, 5]: 34.7 ± 5.42 ng/mL | concentration at 0.5 h [2, 5]: 64.2 ± 35 ng/mL | concentration at 1 h [2, 5]: 82.4 ± 30.8 ng/mL | concentration at 2 h [2, 5]: 150 ± 53.5 ng/mL | concentration at 4 h [2, 5]: 116 ± 24 ng/mL | concentration at 8 h [2, 5]: 47 ± 10.9 ng/mL | half-life ([2]; male, Sprague Dawley, plasma, 3 mg/kg oral, N = 2): 2.82 h | AUC(0-t) [2, 5]: 762 ± 164 ng·h/mL | Cmax [2, 5]: 156 ± 47.3 ng/mL | Tmax [2, 5]: 3 ± 1.15 h | AUC ([2]; male, Sprague Dawley, plasma, 10 mg/kg intravenous, four rats, read-out: mean AUC following intravenous administration): 6170 ± 1770 ng·h/mL | bioavailability ([2]; male, Sprague Dawley, plasma, 10 mg/kg oral vs 10 mg/kg intravenous mean AUC): 54.4 ± 15.2% | concentration at 0.25 h [2, 6]: 150 ± 28.5 ng/mL | concentration at 0.5 h [2, 6]: 548 ± 603 ng/mL | concentration at 1 h [2, 6]: 456 ± 100 ng/mL | concentration at 2 h [2, 6]: 652 ± 62.1 ng/mL | concentration at 4 h [2, 6]: 387 ± 134 ng/mL | concentration at 8 h [2, 6]: 215 ± 97.3 ng/mL | concentration at 24 h ([2]; male, Sprague Dawley, plasma, 10 mg/kg oral, 24 hours, N = 1, three of four animals below level of quantification): 8.73 ± 17.5 ng/mL | AUC(0-t) [2, 7]: 3360 ± 685 ng·h/mL | half-life [2, 7]: 4.88 h | Cmax [2, 6]: 769 ± 458 ng/mL | Tmax [2, 6]: 1.38 ± 0.75 h | concentration at 0.25 h [2, 8]: 950 ± 465 ng/mL | concentration at 0.5 h [2, 8]: 1400 ± 961 ng/mL | concentration at 1 h [2, 8]: 2290 ± 537 ng/mL | concentration at 2 h [2, 8]: 2560 ± 530 ng/mL | concentration at 4 h [2, 8]: 2120 ± 422 ng/mL | concentration at 8 h [2, 8]: 1350 ± 179 ng/mL | concentration at 24 h ([2]; male, Sprague Dawley, plasma, 30 mg/kg oral, 24 hours, n=4): 14.6 ± 6.8 ng/mL | AUC(0-t) [2, 8]: 26200 ± 3970 ng·h/mL | Cmax [2, 8]: 2590 ± 524 ng/mL | Tmax [2, 8]: 1.75 ± 0.5 h | half-life [2, 8]: 2.65 ± 0.193 h | clearance [3]: low clearance | oral bioavailability [3]: high | HM04 plasma concentration ([3]; 30 mg/kg oral, 0 hours (pre-dose), n=4, LLOQ 2.5 ng/mL): BLQ | bioavailability ([3]; male, Beagle, plasma, 3 mg/kg oral vs 3 mg/kg intravenous, individual AUC∞ ratios): 55.6 ± 18.8% | concentration at 0 h ([3]; male, Beagle, plasma, 3 mg/kg oral, 0 hours (pre-dose), n=4): 5.34 ± 3.83 ng/mL | concentration at 0.25 h ([3]; male, Beagle, plasma, 3 mg/kg oral, 0.25 hours, n=4): 66 ± 26.8 ng/mL | concentration at 0.5 h ([3]; male, Beagle, plasma, 3 mg/kg oral, 0.50 hours, n=4): 360 ± 238 ng/mL | concentration at 1 h ([3]; male, Beagle, plasma, 3 mg/kg oral, 1 hour, n=4): 300 ± 127 ng/mL | concentration at 2 h ([3]; male, Beagle, plasma, 3 mg/kg oral, 2 hours, N = 3 (Dog 3 excluded as outlier)): 287 ± 158 ng/mL
SMILES: CN1CCC(N(C)C(=O)N[C@H](c2ccc(-c3cnccn3)c(Cl)c2Cl)C(F)(F)F)CC1.O=C(O)/C=C/C(=O)O [HM04 fumarate salt, (R)-3-(1-(2,3-dichloro-4-(pyrazin-2-yl)phenyl)-2,2,2-trifluoroethyl)-1-methyl-1-(1-methylpiperidin-4-yl)urea fumarate salt]

— patent publication US11299472B2, “Fumarate salt of (R)-3-(1-(2,3-dichloro-4-(pyrazin-2-yl)phenyl)-2,2,2- trifluoroethyl)-1-methyl-1-(1-methylpiperidin-4-yl) urea, methods of preparation, and uses thereof” (Helsinn Healthcare SA, priority 2017, dated 2022)
